Patent US20040235717A1, “Suppression of androgen receptor transactivation through new pathways to ar and ar coactivators and repressors” (priority 2001, published 2004)
Entries after “also recorded” stand apart in the source; their conditions may differ.

Columns and labels:
[1] = tested on: estrogen receptor (ER) transactivation; assay: ER transactivation, ERE-luc in PC-3 cells transfected with ERα; format: cell-based, human; details: 10 nM E2
Description: 26. […] The cells were harvested and assayed for luciferase activity using MMTV-luc as a reporter. […] The cells were harvested for Northern blot analysis. […] The cells were harvested and assayed for the luciferase activity. […] (E) The PC-3 cells were transfected with ERα along with plasmids, as indicated, using ERE-luc as a reporter for 16 h, followed by 10 nM E2 treatment for another 16 h. The cells were harvested for luciferase assay. Data are means±s.d. from three independent experiments.
312. […] The cells were lysed and the luciferase activity was detected by the dual luciferase assay according to standard procedures.

AR transactivation = assay: AR transactivation, MMTV-CAT reporter in DU145 cells transfected with AR; format: cell-based, human
Excerpt: 250. To dissect the divergent effects of IL-6 in prostate tumor growth, Qui, Y. et al., Nature 393, 83-85 (1998); Hobisch, A. et al., Cancer Res. 58, 4640-4645 (1998); Ritchie, C. K. et al., Endocrinology 138, 1145-1150 (1997), the potential influences of IL-6 on the transactivation of AR, the master regulator of the prostate tumor growth were studied. Chang, C. et al., Science 240, 324.326 (1988); Chang, C. et al., Crit. Rev. Eukaryotic Gene Expression 5, 97-125 (1995). Because IL-6 has two major signal cascades, mitogen-activated protein kinase (MAPK) and phosphatidylinositol 3-kinase (PI3K), Qui, Y. et al., Nature 393, 83-85 (1998); Qui, Y. et al., Proc. Natl. Acad. Sci. USA 95, 3644-3649 (1998), inhibitors were applied to specifically block one of these two IL-6 signal pathways. DU145 cells were transfected for 24 h with AR and MMTV-CAT reporter gene. After transfection, the cells were serum starved for 24 h. Next, 20 μM LY294002, P098059 or vehicle was added to serum-free medium 30 min prior to IL-6 treatment. […] The cells were then harvested and AR transactivation was measured by CAT activity. […] Vlahos, C. J. et al., J. Biol. Chem. 269, 5241-5148 (1994). […] Alessi, D. R. et al., J. Biol. Chem. 270, 27489-27494 (1995).
251. IL-6's effect on PI3K activity was tested. After serum starvation for 24 h, LNCaP, PC-3 or DU145 cells were treated with 50 μg/ml IL-6 for 30 minutes. The cells were then harvested. PI3K activity was measured by using phosphatidylinositol (PT) as a substrate. […] The transactivation was measured by CAT activity.
252. Focus then turned to the two major downstream effectors of PI3K: a serine/threonine kinase (Akt/PKB) and a ribosomal S6 kinase (p70S6k). Franke, T. F. et al., Cell 88,435-437 (1997). […] The transactivation activity was determined after 24 h transfection.
262. The DU145 and PC-3 cells were maintained in Dulbecco's Minimum Essential Medium (DMEM) containing penicillin (25 μg/m1), streptomycin (25 μg/ml), and 5% fetal calf serum (FCS). The LNCaP cells were maintained in RPMI-1640 with 10% FCS. Transfections were performed using the calcium phosphate precipitation method, as previously described. Yeh, S. et al., Proc. Natl. Acad. Sci. USA 93, 5517-5521(1996).
277. The DU145 and PC-3 cells were maintained in Dulbecco's Minimum Essential Medium (DMEM) containing penicillin (25 U/ml), streptomycin (25 μg/ml), and 5% fetal calf serum (FCS). The LNCaP cells were maintained in RPMI-1640-10% FCS. Transfections were performed using the calcium phosphate precipitation method in PC-3 and DU145, as previously described. Yeh, S., Lin, H. K., Kang, H. Y., Thin, T. H., Lin, M. F. & Chang, C. (1999) Proc Natl Acad Sci U S A 96, 5458-63. LNCaP cells were transfected using SuperFect™ according to standard procedures (Qiagen).

## dAkt: dominant-negative Akt, a kinase deficient mutant, K179A
[1]
  Effect on ER transactivation: suppressed ER transactivation
AR transactivation; presence of androgen
  Effect on DHT-induced AR transactivation (CAT activity): induce AR transactivation in a dose-dependent manner; also recorded: induce wtAR transactivation in a dose-dependent manner
AR transactivation; rapamycin 20 nM 30 min prior to 1 nM DHT, dAkt co-transfected
  Effect on p110/p110*-repressed AR transactivation: reversed the p110-repressed AR transactivation; also recorded: reversed this p110*-repressed AR transactivation
